Measurements taken from the CheMixHub drug solubility set.

Test: xn = mol fraction of the nth substance listed, in the solute-free solvent

CC(=O)Oc1cccc2c1C(=O)c1c(OC(C)=O)cc(C(=O)O)cc1C2=O + CCOC(C)=O + CC(C)O
solubility (g/100 g solution)
Settings | 273.15 K | 278.15 K | 283.15 K | 288.15 K | 293.15 K | 298.15 K | 303.15 K | 308.15 K | 313.15 K
x2 = 0.07045 | 0.0064 | 0.00841 | 0.0107 | 0.014 | 0.0178 | 0.0215 | 0.0261 | 0.0309 | 0.0362
x2 = 0.1457 | 0.00881 | 0.0112 | 0.0142 | 0.0177 | 0.0216 | 0.0261 | 0.031 | 0.0367 | 0.0431
x2 = 0.2262 | 0.0102 | 0.0132 | 0.0164 | 0.0199 | 0.0246 | 0.0305 | 0.0368 | 0.0448 | 0.0539
x2 = 0.3126 | 0.0121 | 0.0158 | 0.0197 | 0.0245 | 0.0299 | 0.0359 | 0.0439 | 0.0522 | 0.062
x2 = 0.4055 | 0.0132 | 0.0175 | 0.0224 | 0.0279 | 0.0338 | 0.0406 | 0.0489 | 0.0583 | 0.069
x2 = 0.5057 | 0.0164 | 0.0205 | 0.0253 | 0.0305 | 0.0368 | 0.0435 | 0.0512 | 0.0598 | 0.0693
x2 = 0.6141 | 0.0209 | 0.026 | 0.0317 | 0.0375 | 0.0445 | 0.0521 | 0.0612 | 0.0702 | 0.0806
x2 = 0.7318 | 0.0254 | 0.0303 | 0.0368 | 0.0441 | 0.0516 | 0.06 | 0.0692 | 0.0796 | 0.0906
x2 = 0.8599 | 0.0219 | 0.0263 | 0.0318 | 0.0379 | 0.0443 | 0.0515 | 0.0599 | 0.0686 | 0.0779

O=C1CCC(C(=O)N2CSCC2C(=O)O)N1 (stereo not given) + CO + CCCCOC(C)=O
solubility (g/100 g solution)
Settings | 278.15 K | 283.15 K | 288.15 K | 293.15 K | 298.15 K | 303.15 K | 308.15 K | 313.15 K | 318.15 K | 323.15 K
x2 = 0.2871 | 0.0109 | 0.0159 | 0.0239 | 0.0358 | 0.0528 | 0.0759 | 0.105 | 0.152 | 0.213 | 0.292
x2 = 0.4754 | 0.017 | 0.025 | 0.0349 | 0.0468 | 0.0628 | 0.0977 | 0.147 | 0.219 | 0.325 | 0.472
x2 = 0.6084 | 0.0271 | 0.0398 | 0.0597 | 0.0838 | 0.122 | 0.155 | 0.227 | 0.342 | 0.501 | 0.724
x2 = 0.7073 | 0.0401 | 0.065 | 0.104 | 0.162 | 0.249 | 0.378 | 0.564 | 0.832 | 1.2 | 1.68
x2 = 0.7838 | 0.0447 | 0.0729 | 0.117 | 0.184 | 0.287 | 0.432 | 0.65 | 0.964 | 1.4 | 1.95
x2 = 0.8446 | 0.0601 | 0.0995 | 0.148 | 0.234 | 0.363 | 0.542 | 0.949 | 1.23 | 1.59 | 2.33
x2 = 0.8943 | 0.635 | 0.752 | 0.898 | 0.997 | 1.19 | 1.36 | 1.59 | 1.88 | 2.15 | 2.57
x2 = 0.9355 | 0.674 | 0.824 | 0.969 | 1.11 | 1.26 | 1.5 | 1.8 | 2.04 | 2.4 | 2.85
x2 = 0.9703 | 0.793 | 0.937 | 1.12 | 1.28 | 1.52 | 1.75 | 2.06 | 2.36 | 2.82 | 3.31

CN1CCC(N(Cc2cccs2)c2ccccc2)CC1 + CN(C)C=O + O
solubility (g/100 g solution)
Settings | 278.15 K | 283.15 K | 288.15 K | 293.15 K | 298.15 K | 303.15 K | 308.15 K | 313.15 K | 318.15 K | 323.15 K
x2 = 0.02666 | 0.234 | 0.248 | 0.263 | 0.283 | 0.308 | 0.336 | 0.367 | 0.396 | 0.432 | 0.473
x2 = 0.05806 | 0.678 | 0.715 | 0.75 | 0.8 | 0.862 | 0.931 | 1.01 | 1.08 | 1.16 | 1.26
x2 = 0.09556 | 1.25 | 1.32 | 1.38 | 1.47 | 1.58 | 1.7 | 1.83 | 1.95 | 2.11 | 2.27
x2 = 0.1412 | 1.74 | 1.84 | 1.95 | 2.07 | 2.23 | 2.4 | 2.59 | 2.76 | 2.98 | 3.21
x2 = 0.1978 | 2.05 | 2.19 | 2.34 | 2.51 | 2.71 | 2.93 | 3.16 | 3.38 | 3.65 | 3.96
x2 = 0.27 | 2.31 | 2.46 | 2.65 | 2.87 | 3.12 | 3.38 | 3.66 | 3.93 | 4.27 | 4.64
x2 = 0.3652 | 2.53 | 2.75 | 2.99 | 3.25 | 3.54 | 3.83 | 4.16 | 4.52 | 4.89 | 5.35
x2 = 0.4965 | 2.78 | 3.02 | 3.28 | 3.6 | 3.95 | 4.31 | 4.69 | 5.09 | 5.53 | 6.09
x2 = 0.6893 | 2.78 | 3.07 | 3.4 | 3.73 | 4.13 | 4.53 | 4.98 | 5.42 | 5.95 | 6.54

O=C(O)C1CC(O)CN1 (stereo not given) + O + CC#N
solubility (g/100 g solution)
Settings | x2 = 0.1 | x2 = 0.2 | x2 = 0.3 | x2 = 0.4 | x2 = 0.5 | x2 = 0.6 | x2 = 0.7 | x2 = 0.8 | x2 = 0.9
283.15 K | 0.0362 | 0.0575 | 0.0864 | 0.185 | – | 0.635 | 1.45 | 3.22 | 9.59
293.15 K | 0.0605 | 0.101 | 0.188 | 0.517 | 1.13 | 1.82 | 2.8 | 4.82 | 12.7
303.15 K | 0.0971 | 0.136 | 0.287 | 0.813 | 1.6 | 2.88 | 4.48 | 7.02 | 15.9
313.15 K | 0.128 | 0.203 | 0.398 | 1.08 | 2.25 | 3.66 | 6.08 | 11.3 | 21.4
323.15 K | 0.187 | 0.327 | 0.778 | 1.71 | 3.12 | 5.6 | 10.2 | 16.7 | 24.8

NCCS(=O)(=O)O + O + OCCO
solubility (g/100 g solution)
Settings | 298.15 K | 303.15 K | 308.15 K | 313.15 K | 318.15 K
x2 = 0.775 | 1.2 | 1.44 | 1.68 | 2.16 | 2.27
x2 = 0.8378 | 1.63 | 1.92 | 2.28 | 2.83 | 3.17
x2 = 0.8893 | 2.24 | 2.94 | 3.18 | 3.64 | 4.08
x2 = 0.9323 | 3.39 | 4.12 | 4.67 | 5.48 | 6.21
x2 = 0.9688 | 5.08 | 6.22 | 7.45 | 8.66 | 10.1
